US4471131A, “Novel silyl esters of N-phosphonomethylglycine” (Monsanto Company, priority 1983, dated 1984)

Columns and labels:
Experiment in all cases: post-emergence herbicidal activity, greenhouse
Type in all cases: in vivo
Barnyardgrass = test system: Barnyardgrass
In short: (§1)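 Plants grown from seed or vegetative propagules in topsoil pans on a greenhouse sand bench, watered from below, were atomizer-sprayed at two to three weeks of age. The spray carried about 0.4% by weight emulsifier. Injury relative to unsprayed control pans was scored approximately two and four weeks after treatment.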

Canada Thistle = conditions: Table II
In short: as §1

Cocklebur = test system: Cocklebur
In short: as §1

Common Lambsquarters = test system: Common Lambsquarters
In short: as §1

Downy Brome = test system: Downy Brome
In short: as §1

Hemp Sesbania = conditions: Table III; 2 WAT; 1.1 kg/h
In short: as §1

Johnsongrass = conditions: Table II
In short: as §1

Large Crabgrass = conditions: Table III; 2 WAT; 1.1 kg/h
In short: as §1

Morningglory = test system: Morningglory
In short: as §1

Panicum Spp = conditions: Table III; 2 WAT; 1.1 kg/h
In short: as §1

Pennsylvania Smartweed = conditions: Table II
In short: as §1

Quackgrass = conditions: Table II
In short: as §1

Rice = conditions: Table III; 2 WAT; 1.1 kg/h
In short: as §1

Soybean = conditions: Table III; 2 WAT; 1.1 kg/h
In short: as §1

Sugar Beet = conditions: Table III; 2 WAT; 1.1 kg/h
In short: as §1

Velvetleaf = test system: Velvetleaf
In short: as §1

Wild Buckwheat = conditions: Table III; 2 WAT; 1.1 kg/h
In short: as §1

Yellow Nutsedge = conditions: Table II
In short: as §1

Compound: CC(C)(C)[Si](OP(=O)(O)CNCC(=O)OCCCl)(c1ccccc1)c1ccccc1 [Ex. 8, Glycine, N--((([(1,1-Dimethylethyl)Diphenylsilyl]oxy)Hydroxyphosphinyl)Methyl)-,2-Chloroethyl Ester Hydrate]
- Plant Response Index (K) (Barnyardgrass; Table II, 2 WAT, 5.6 kg/h): 3 (75-99% inhibition)
- Plant Response Index (K) (Barnyardgrass; Table II, 2 WAT, 11.2 kg/h): 2 (50-74% inhibition)
- Plant Response Index (K) (Barnyardgrass; Table II, 4 WAT, 5.6 kg/h): 4 (100% inhibition)
- Plant Response Index (K) (Barnyardgrass; Table II, 4 WAT, 11.2 kg/h): 3 (75-99% inhibition)
- Plant Response Index (K) (Barnyardgrass; Table III, 2 WAT, 1.1 kg/h): 1 (25-49% inhibition)
- Plant Response Index (A) (Canada Thistle; 2 WAT, 5.6 kg/h): 2 (50-74% inhibition)
- Plant Response Index (A) (Canada Thistle; 2 WAT, 11.2 kg/h): 2 (50-74% inhibition)
- Plant Response Index (A) (Canada Thistle; 4 WAT, 5.6 kg/h): 4 (100% inhibition)
- Plant Response Index (A) (Canada Thistle; 4 WAT, 11.2 kg/h): 2 (50-74% inhibition)
- Plant Response Index (B) (Cocklebur; Table II, 2 WAT, 5.6 kg/h): 2 (50-74% inhibition)
- Plant Response Index (B) (Cocklebur; Table II, 2 WAT, 11.2 kg/h): 3 (75-99% inhibition)
- Plant Response Index (B) (Cocklebur; Table II, 4 WAT, 5.6 kg/h): 3 (75-99% inhibition)
- Plant Response Index (B) (Cocklebur; Table II, 4 WAT, 11.2 kg/h): 3 (75-99% inhibition)
- Plant Response Index (B) (Cocklebur; Table III, 2 WAT, 1.1 kg/h): 0 (0-24% inhibition)
- Plant Response Index (E) (Common Lambsquarters; Table II, 2 WAT, 5.6 kg/h): 2 (50-74% inhibition)
- Plant Response Index (E) (Common Lambsquarters; Table II, 2 WAT, 11.2 kg/h): 1 (25-49% inhibition)
- Plant Response Index (E) (Common Lambsquarters; Table II, 4 WAT, 5.6 kg/h): 2 (50-74% inhibition)
- Plant Response Index (E) (Common Lambsquarters; Table II, 4 WAT, 11.2 kg/h): 1 (25-49% inhibition)
- Plant Response Index (E) (Common Lambsquarters; Table III, 2 WAT, 1.1 kg/h): 3 (75-99% inhibition)
- Plant Response Index (J) (Downy Brome; Table II, 2 WAT, 5.6 kg/h): 1 (25-49% inhibition)
- Plant Response Index (J) (Downy Brome; Table II, 2 WAT, 11.2 kg/h): 2 (50-74% inhibition)
- Plant Response Index (J) (Downy Brome; Table II, 4 WAT, 5.6 kg/h): 1 (25-49% inhibition)
- Plant Response Index (J) (Downy Brome; Table II, 4 WAT, 11.2 kg/h): 3 (75-99% inhibition)
- Plant Response Index (J) (Downy Brome; Table III, 2 WAT, 1.1 kg/h): 0 (0-24% inhibition)
- Plant Response Index (R) (Hemp Sesbania): 1 (25-49% inhibition)
- Plant Response Index (I) (Johnsongrass; 2 WAT, 5.6 kg/h): 0 (0-24% inhibition)
- Plant Response Index (I) (Johnsongrass; 2 WAT, 11.2 kg/h): 1 (25-49% inhibition)
- Plant Response Index (I) (Johnsongrass; 4 WAT, 5.6 kg/h): 2 (50-74% inhibition)
- Plant Response Index (I) (Johnsongrass; 4 WAT, 11.2 kg/h): 2 (50-74% inhibition)
- Plant Response Index (T) (Large Crabgrass): 2 (50-74% inhibition)
- Plant Response Index (D) (Morningglory; Table II, 2 WAT, 5.6 kg/h): 2 (50-74% inhibition)
- Plant Response Index (D) (Morningglory; Table II, 2 WAT, 11.2 kg/h): 2 (50-74% inhibition)
- Plant Response Index (D) (Morningglory; Table II, 4 WAT, 5.6 kg/h): 2 (50-74% inhibition)
- Plant Response Index (D) (Morningglory; Table II, 4 WAT, 11.2 kg/h): 2 (50-74% inhibition)
- Plant Response Index (D) (Morningglory; Table III, 2 WAT, 1.1 kg/h): 0 (0-24% inhibition)
- Plant Response Index (S) (Panicum Spp): 1 (25-49% inhibition)
- Plant Response Index (F) (Pennsylvania Smartweed; 2 WAT, 5.6 kg/h): 3 (75-99% inhibition)
- Plant Response Index (F) (Pennsylvania Smartweed; 2 WAT, 11.2 kg/h): 2 (50-74% inhibition)
- Plant Response Index (F) (Pennsylvania Smartweed; 4 WAT, 5.6 kg/h): 4 (100% inhibition)
- Plant Response Index (F) (Pennsylvania Smartweed; 4 WAT, 11.2 kg/h): 4 (100% inhibition)
- Plant Response Index (H) (Quackgrass; 2 WAT, 5.6 kg/h): 3 (75-99% inhibition)
- Plant Response Index (H) (Quackgrass; 2 WAT, 11.2 kg/h): 2 (50-74% inhibition)
- Plant Response Index (H) (Quackgrass; 4 WAT, 5.6 kg/h): 4 (100% inhibition)
- Plant Response Index (H) (Quackgrass; 4 WAT, 11.2 kg/h): 3 (75-99% inhibition)
- Plant Response Index (O) (Rice): 0 (0-24% inhibition)
- Plant Response Index (L) (Soybean): 0 (0-24% inhibition)
- Plant Response Index (M) (Sugar Beet): 0 (0-24% inhibition)
- Plant Response Index (C) (Velvetleaf; Table II, 2 WAT, 5.6 kg/h): 1 (25-49% inhibition)
- Plant Response Index (C) (Velvetleaf; Table II, 2 WAT, 11.2 kg/h): 3 (75-99% inhibition)
- Plant Response Index (C) (Velvetleaf; Table II, 4 WAT, 5.6 kg/h): 1 (25-49% inhibition)
- Plant Response Index (C) (Velvetleaf; Table II, 4 WAT, 11.2 kg/h): 3 (75-99% inhibition)
- Plant Response Index (C) (Velvetleaf; Table III, 2 WAT, 1.1 kg/h): 0 (0-24% inhibition)
- Plant Response Index (Q) (Wild Buckwheat): 0 (0-24% inhibition)
- Plant Response Index (G) (Yellow Nutsedge; 2 WAT, 5.6 kg/h): 2 (50-74% inhibition)
- Plant Response Index (G) (Yellow Nutsedge; 2 WAT, 11.2 kg/h): 2 (50-74% inhibition)
- Plant Response Index (G) (Yellow Nutsedge; 4 WAT, 5.6 kg/h): 2 (50-74% inhibition)
- Plant Response Index (G) (Yellow Nutsedge; 4 WAT, 11.2 kg/h): 3 (75-99% inhibition)
